According to US20220106282A1, “TREATMENT FOR BREAST CANCER, INCLUDING TRIPLE-NEGATIVE BREAST CANCER” (priority 2018, published 2022):
Where “and” joins values, the source holds several entries; their conditions need not be identical. Equal entries are not always repeated.

What was measured:
[1] = test system: patients having metastases spread into axillary lymph nodes; test: Chemotherapy of patients with axillary lymph node metastases; assay type: in vivo, human
[2] = test system: FVB mice transgenic for HER-2/neu; test: Acute oral toxicity, OECD 423 test; assay type: in vivo
Experimental: 12 female mice were used in the experiment.
The dosage form for administration was prepared ex tempore.
No deaths were detected either.
Further the observations were made once per day.
The medicament was administered in 2 steps with a break of 3 hours in a volume of 0.1 ml per 10 g of a body weight per step at the concentration of 100 mg/ml, because the suspension in oil is thicker at higher concentrations and precludes the medicament to be administered through a gavage. […] Regardless of the group the width of the palpebral fissure of the animals was almost unchanged during the entire observation period. No pathological discharges from the eyes were detected. The nose was pink, moderately moist without pathological discharges. The fur of all mice was neat and shiny without bald spots. A 3% decrease of the animals body weight was registered on Day 2 and a 4% weight decrease on Day 7 from the initial weight (Table 3).

[3] = test system: MDA-MB-231 line of cells of triple-negative breast cancer; test: Cell growth inhibition, MDA-MB-231; assay type: cell-based; details: Homo sapiens
[4] = test system: FVB mice transgenic for HER-2/neu; test: Acute oral toxicity, OECD 423 test; assay type: in vivo; remark: listed apart in the source
[5] = test system: human MCF-7 cell culture (breast adenocarcinoma); test: Proliferation of MCF-7 cells under sulfatase inhibition; assay type: cell-based; details: concentration of 20 μg/ml
Experimental: (§1) The cells were seeded on Carrel vials at 50×10^4 cells per flask. To study the proliferative activity of the cells under conditions of sulfatase inhibition, 24 hours after seeding the culture medium […], and then these tumor cell lines were incubated for various periods of time (24 to 72 hrs). The inhibitor was dissolved in DMSO. […] To exclude the cytotoxic effect of DMSO, a control sample comprising DMSO without sulfatase inhibitor was prepared. To exclude nonspecific detrimental effects of the compounds, normal human skin fibroblasts were used. Then the cells were detached with the versene-trypsin solution (Biolot), plated onto Carrel vials containing a fresh complete culture medium. The cells were counted when untreated control cells reached the maximum cell density per unit of surface area of a culture flask (monolayer), and their number was set as 100%. The proliferative activity of all of the studied cell cultures exposed to sulfatase inhibitors was determined in triplicate.

[6] = test system: passaged human tumor of triple-negative breast cancer; test: Animal models with passaged human triple-negative breast tumor; assay type: in vivo
[7] = test system: normal human skin fibroblasts; test: Growth of normal human skin fibroblasts (nonspecific effects); assay type: cell-based; details: concentration of 20 μg/ml; cells having no estrogen receptors
Experimental: as §1, with “24” for “24 hours after seeding the culture medium”

C[C@H]1Oc2cc(OS(N)(=O)=O)ccc2[C@H]2CC[C@]3(C)C(=O)CCC[C@H]3[C@H]21 [compound of formula (1), 3-O-sulphamoyloxy-7β-methyl-D-homo-6-oxa-8α-estra-1,3,5(10)-trien-17a-one]
Overall survival rate ([1]; as compared to the Tamoxifen treated group): increase the overall survival rate | Prolongation of recurrence-free survival rate ([1]; as compared to the untreated group): 11% | Body weight, individual mice ([2]; 2000 mg/kg i.g. (title of Table 3), Day 1 (before administration), listed as medicament): 26.0 and 28.4 and 27.7 and 26.2 (2×) and 28.3 | Body weight, average ([2]; 2000 mg/kg i.g., Day 1 (before administration)): 27.1 g | Body weight, individual mice ([2]; 2000 mg/kg i.g., Day 2, listed as medicament, in g (unit assumed)): 25.7 and 27.7 and 27.0 and 25.3 and 27.4 and 24.7 | Body weight, individual mice ([2]; 2000 mg/kg i.g., Day 7, listed as medicament, in g (unit assumed)): 25.0 and 25.8 and 29.6 and 24.6 and 27.6 and 25.7 | Body weight, individual mice ([2]; 2000 mg/kg i.g., Day 14, listed as medicament, in g (unit assumed)): 25.1 and 28.3 and 28.0 and 25.9 and 29.1 and 26.5 | Decrease of body weight from the initial weight ([2]; 2000 mg/kg, Day 2): 3% | LD50 ([2]; oral (i.g.), OECD 423, listed as anti-cancer agent): > 5000 mg/kg | Hazard category according to the OECD 423 test ([2]; oral (i.g.), listed as anti-cancer agent): 5th | Hazard category according to the OECD 423 test ([2]; oral (i.g.), listed as medicament): 5th or non-classified and 5th or unclassified | IC50 [3]: 4.8 µM | Lethal effects (dead/total) ([4]; 300 mg/kg single i.g. dose): 0/6 | Body weight, average ([4]; 300 mg/kg single i.g. dose, Day 1 (before administration)): 28.7 g | Body weight, individual mice ([4]; 300 mg/kg single i.g. dose, Day 1 (before administration), listed as medicament): 26.4 and 28.2 and 30.0 and 29.0 (2×) and 29.5 | Body weight, average ([4]; 300 mg/kg single i.g. dose, Day 2): 28.8 g | Body weight, individual mice ([4]; 300 mg/kg single i.g. dose, Day 2, listed as medicament, in g (unit assumed)): 26.4 and 28.0 and 30.8 and 29.6 and 28.6 and 29.2 | Body weight, average ([4]; 300 mg/kg single i.g. dose, Day 7): 29.6 g | Body weight, individual mice ([4]; 300 mg/kg single i.g. dose, Day 7, listed as medicament, in g (unit assumed)): 27.0 and 28.4 and 30.8 and 31.2 and 30.4 and 29.6 | Body weight, average ([4]; 300 mg/kg single i.g. dose, Day 14): 29.6 g | Body weight, individual mice ([4]; 300 mg/kg single i.g. dose, Day 14, listed as medicament, in g (unit assumed)): 27.2 and 28.6 and 30.3 and 31.0 and 30.6 and 29.8 | Lethal effects (dead/total) ([4]; 300 mg/kg single i.g. dose, listed as medicament): no animals deaths | Average body weight, % from baseline ([4]; 300 mg/kg, Day 2): (0) % | Average body weight, % from baseline ([4]; 300 mg/kg, Day 7): (3) % | Average body weight, % from baseline ([4]; 300 mg/kg, Day 14): (3) % | Visual signs of intoxication ([4]; 300 mg/kg, entire observation period): None of the animals exhibited visual signs of intoxication | Clinical signs of intoxication ([4]; 2000 mg/kg): No clinical signs of intoxication were observed | Lethal effects (dead/total) ([4]; 2000 mg/kg i.g.): 0/6 | Body weight, average ([4]; 2000 mg/kg i.g., Day 2): 26.3 g | Body weight, average ([4]; 2000 mg/kg i.g., Day 7): 25.9 g | Body weight, average ([4]; 2000 mg/kg i.g., Day 14): 27.2 g | Average body weight, % from baseline ([4]; 2000 mg/kg, Day 2): (−3) % | Average body weight, % from baseline ([4]; 2000 mg/kg, Day 7): (−4) % | Decrease of body weight from the initial weight ([4]; 2000 mg/kg, Day 7): 4% | Average body weight, % from baseline ([4]; 2000 mg/kg, Day 14): (0) % | Macroscopic changes of the internal organs at autopsy ([4]; Day 15): no changes of the internal organs were detected | Proliferation of MCF-7 tumor cells [5]: completely blocks the proliferation | Action compared to Tamoxifen and Letrozole [6]: better action | Growth of human skin fibroblasts [7]: does not influence the growth
